Assay results from article PMC6832239, “The Effects of a Novel Series of KTTKS Analogues on Cytotoxicity and Proteolytic Activity” (Molecules, 2019).
Read-outs that look alike come from different tables or passages of the source. Residues, ends and D or L forms follow the SMILES beside them.

Columns and labels:
[1] = target: T1, plasmin (Homo sapiens, UniProt P00747); test: Amidolytic activity of plasmin (chromogenic substrate H-D-Val-Leu-Lys-pNA); type: biochemical
T1 construct: purchased Chromogenix (Milano, Italy)
T1 sequence (P00747 581-810 limits assumed): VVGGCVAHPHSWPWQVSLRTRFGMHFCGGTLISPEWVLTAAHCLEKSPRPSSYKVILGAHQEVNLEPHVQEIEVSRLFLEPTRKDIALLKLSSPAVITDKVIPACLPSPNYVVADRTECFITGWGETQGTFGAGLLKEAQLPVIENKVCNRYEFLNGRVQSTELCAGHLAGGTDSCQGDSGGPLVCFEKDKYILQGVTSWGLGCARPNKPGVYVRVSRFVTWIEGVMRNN
T1 sequence (P00747 97-580 partner limits assumed): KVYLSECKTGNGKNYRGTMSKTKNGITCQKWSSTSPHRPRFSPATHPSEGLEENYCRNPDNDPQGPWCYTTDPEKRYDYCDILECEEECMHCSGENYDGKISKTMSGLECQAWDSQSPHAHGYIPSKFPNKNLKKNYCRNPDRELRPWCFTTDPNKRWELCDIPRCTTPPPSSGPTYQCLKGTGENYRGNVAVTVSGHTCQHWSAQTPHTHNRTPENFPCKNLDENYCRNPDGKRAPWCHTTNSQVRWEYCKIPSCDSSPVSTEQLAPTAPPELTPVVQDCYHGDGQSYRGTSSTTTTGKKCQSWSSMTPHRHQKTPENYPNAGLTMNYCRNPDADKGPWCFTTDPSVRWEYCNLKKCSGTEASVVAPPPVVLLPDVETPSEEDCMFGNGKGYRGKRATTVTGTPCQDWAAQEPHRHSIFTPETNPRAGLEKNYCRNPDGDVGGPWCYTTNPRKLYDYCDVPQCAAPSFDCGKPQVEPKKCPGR
Method: (§1) The determination of amidolytic activity was performed as previously described by Okada. A detailed description of the method is given below: 0.2 mL of the examined peptides (0.15 M NaCl as contro), a buffer, and 0.1 mL of enzyme solution were mixed. The final peptide concentrations were: 0.2 mM, 2 mM, and 20 mM. The mixture was incubated at 37 °C for 3 min; then the synthetic substrate solution was added in the same buffer. After 20 min of incubation, the reaction was stopped by adding 0.1 mL of 50% acetic acid and the absorbance of the released p-nitroaniline was measured at 405 nm. The mean values from three independent experiments done in duplicate are presented. A method error of 5% was adopted as statistical error. IC50 value was considered as the concentration of inhibitor that reduces absorbance by 50%, compared with absorbance measured under the same conditions without an inhibitor. IC50 was calculated mathematically by extrapolation using a linear plot. IC50 values are presented in Table 1 and Table 2, and graphically in Figure 1.
(§2) The buffers and the enzyme solutions included: • Tris buffer—0.6 mL (pH 8.8), enzyme: urokinase (50 units/mL), synthetic substrate: pyro-Glu-Gly-Arg-pNA·HCl (0.1 mL, 3 mM); • Tris buffer—0.5 mL (pH 8.4), enzyme: thrombin (1 units/mL), synthetic substrate: H-D-Phe-Pip-Arg-pNA (0.2 mL, 0.75 mM); • Tris buffer—0.5 mL (pH 7.4), enzyme: plasmin (0.4 units/mL), synthetic substrate: H-D-Val-Leu-Lys-pNA (0.2 mL, 3 mM); • Borate buffer—0.5 mL (pH 7.5), enzyme: trypsin (0.4 units/mL), synthetic substrate: Bzl-L-Arg-pNA·HCl (0.2 mL, 8 mM); • Tris buffer—0.6 mL (pH 9.0), enzyme: kallikrein (3 units/mL), synthetic substrate: H-D-Val-Leu-Arg-pNA·2HCl (0.1 mL, 75 mM); • Tris buffer—0.6 mL (pH 8.4), enzyme: t-PA ([…]), synthetic substrate: H-D-Ile-Pro-Arg-pNA (0.1 mL, 10 mM) • Tris buffer—0.6 mL (pH 9.0), enzyme: chymotrypsin (0.4 units/mL), synthetic substrate: Suc-Phe-pNA (0.2 mL, 8 mM)

[2] = Viability of fibroblast cells, MTT assay; type: cell-based, Human; conditions: human, primary dermal fibroblast cells, 24 h, MTT, ± 2, read-out: Viability of fibroblast cells
Method: Viability of fibroblast cells was examined with the use of the MTT assay. MTT, a yellow tetrazole, is reduced to purple formazan only in living cells. Absorbance of the coloured solution was measured by a spectrophotometer.
These studies were performed on primary dermal fibroblasts cells. The cells were maintained in DMEM supplemented with 10% fetal bovine serum (FBS), 2 mM glutamin, 50 U/mL penicillin and […] streptomycin at 37 °C in a 5% CO2 incubator. For experiments, cells cultures were plated at a density of 1 × 10^6/well in six-well culture plates (Costar, St. Louis, MO, USA) in 2 mL of growth medium. Cells reached about 80% of confluency at day 2 were used for the assays.
Toxicity of the tested substances was determined using an MTT [3-(4,5-dimethylthiazol-2-yl)-2,5-diphenyltetrazolium bromide)] assay. Palmitoyl and lipoyl peptides were dissolved in DMSO (dimethyl sulfoxide), the other peptides in DMEM, and added to the cell culture medium. Simultaneously, the same concentrations of DMSO without peptides were added to cells, serving as controls. The final peptide concentrations were: 1 μM, 10 μM, and 100 μM. After 24 h incubation, the cells cultured with the tested compounds were washed with phosphate-buffered saline (PBS) and then incubated for 4 h in 2 mL of MTT solution (5 mg/mL). After removing the medium, the cells were lysed in 200 μL of DMSO with 20 μL of Sorensen’s buffer (pH 10.5, 0.1 mol/L glycine with 0.1 mol/L NaCl). The absorbance of converted dye in living cells was measured at a wavelength of 570 nm. The mean values ± SD from three independent experiments done in duplicate are presented.

[3] = target: T2, urokinase (Homo sapiens, UniProt P00749); test: Amidolytic activity of urokinase (chromogenic substrate pyro-Glu-Gly-Arg-pNA); type: biochemical
T2 construct: purchased Sigma (Schnelldorf, Germany)
Method: as §1, §2

[4] = target: T3, thrombin (Bos taurus, UniProt P00735); test: Amidolytic activity of thrombin (chromogenic substrate H-D-Phe-Pip-Arg-pNA); type: biochemical; conditions: for IC50: amidolytic activity, Tris pH 8.4, 37 °C, IC50 by extrapolation using a linear plot, error 5%, read-out: IC50 Thrombin
T3 construct: purchased Lubelska Wytwórnia Szczepionek (Lublin, Poland)
Method: The determination of amidolytic activity was performed as previously described by Okada. A detailed description of the method is given below: 0.2 mL of the examined peptides (0.15 M NaCl as contro), a buffer, and 0.1 mL of enzyme solution were mixed. The final peptide concentrations were: 0.2 mM, 2 mM, and 20 mM. The mixture was incubated at 37 °C for 3 min; then the synthetic substrate solution was added in the same buffer. […] The mean values from three independent experiments done in duplicate are presented. A method error of 5% was adopted as statistical error. […] IC50 was calculated mathematically by extrapolation using a linear plot.

[5] = amidolytic activity, Tris pH 7.4, 37 °C, IC50 by extrapolation using a linear plot, error 5%, read-out: IC50 Plasmin
[6] = amidolytic activity, Tris pH 8.8, 37 °C, IC50 by extrapolation using a linear plot, error 5%, read-out: IC50 Urokinase
[7] = converted from IC50 of Table 1, read-out: -logIC50 Plasmin (converted)

Compound | IC50 [1, 5] [mM] | viability at 24 h, 1 µmol/L [2] [%] | viability at 24 h, 10 µmol/L [2] [%] | viability at 24 h, 100 µmol/L [2] [%] | IC50 [3, 6] [mM] | IC50 [4] [mM] | level of inhibition of plasmin activity [1] | level of inhibition of urokinase activity [3] | level of inhibition of thrombin activity [4] | IC50 ([3]; converted from IC50 of Table 1, read-out: -logIC50 Urokinase (converted)) [mM] | IC50 [1, 7] [mM]
C[C@@H](O)[C@H](NC(=O)[C@H](CCCNC(=N)N)NC(=O)CCCCC1CCSS1)C(=O)N[C@H](C(=O)N[C@@H](CCCNC(=N)N)C(=O)N[C@@H](CO)C(N)=O)[C@@H](C)O (mixture of isomers) [Peptide 23, Lip-Arg-Thr-Thr-Arg-Ser-NH2] | 1.89 ± 0.094 | 89 | 79 | 88 | 4.67 ± 0.23 | 2.36 ± 0.12 | – | – | – | – | –
C[C@@H](O)[C@H](NC(=O)[C@H](CCCNC(=N)N)NC(=O)CCCCC1CCSS1)C(=O)N[C@H](C(=O)N[C@@H](CCCCN)C(=O)N[C@@H](CO)C(N)=O)[C@@H](C)O (mixture of isomers) [Peptide 31, Lip-Arg-Thr-Thr-Lys-Ser- NH2] | 3.23 ± 0.16 | 107 | 112 | 117 | 4.57 ± 0.23 | 5.59 ± 0.28 | – | – | – | – | –
CCCCCCCCCCCCCCCC(=O)N[C@@H](CCCNC(=N)N)C(=O)N[C@H](C(=O)N[C@H](C(=O)N[C@@H](CCCNC(=N)N)C(=O)N[C@@H](CO)C(=O)O)[C@@H](C)O)[C@@H](C)O [Peptide 20, Pal-Arg-Thr-Thr-Arg-Ser-OH] (HELM PEPTIDE1{[CCCCCCCCCCCCCCCC(=O)[*:2]].R.T.T.R.S}$$$$V2.0) | – | 90 | 90 | 103 | – | < 0.2 | above 90% | above 90% | above 90% | – | –
CCCCCCCCCCCCCCCC(=O)N[C@@H](CCCNC(=N)N)C(=O)N[C@H](C(=O)N[C@H](C(=O)N[C@@H](CCCCN)C(=O)N[C@@H](CO)C(=O)O)[C@@H](C)O)[C@@H](C)O [Peptide 28, Pal-Arg-Thr-Thr-Lys-Ser-OH] (HELM PEPTIDE1{[CCCCCCCCCCCCCCCC(=O)[*:2]].R.T.T.K.S}$$$$V2.0) | – | 104 | 103 | 106 | – | – | above 90% | above 90% | above 90% | – | –
Ac-KTTKS-NH2 [Peptide 6, Ac-Lys-Thr-Thr-Lys-Ser-NH2] | 2.92 ± 0.15 | 97 | 88 | 86 | > 20 | 3.25 ± 0.16 | – | – | – | – | –
Ac-KTTKS-OH [Peptide 2, Ac-Lys-Thr-Thr-Lys-Ser-OH] | 2.78 ± 0.14 | 98 | 88 | 82 | 3.88 ± 0.19 | 2.2 ± 0.11 | – | – | – | – | –
Ac-KTTRS-OH [Peptide 10, Ac-Lys-Thr-Thr-Arg-Ser-OH] | 2.24 ± 0.11 | 104 | 100 | 94 | – | 2.89 ± 0.14 | – | – | – | 4.79 | –
Ac-RTTKS-NH2 [Peptide 30, Ac-Arg-Thr-Thr-Lys-Ser- NH2] | 5 ± 0.25 | 95 | 105 | 101 | 12.1 ± 0.6 | 1.59 ± 0.08 | – | – | – | – | –
Ac-RTTRS-NH2 [Peptide 22, Ac-Arg-Thr-Thr-Arg-Ser-NH2] | 9.08 ± 0.45 | 102 | 99 | 101 | > 20 | 1.47 ± 0.074 | – | – | – | – | –
Ac-RTTRS-OH [Peptide 18, Ac-Arg-Thr-Thr-Arg-Ser-OH] | 8.81 ± 0.44 | 88 | 103 | 107 | 3.24 ± 0.16 | 3.12 ± 0.16 | – | – | – | – | 8.91
H-KTTKS-NH2 [Peptide 5, H-Lys-Thr-Thr-Lys-Ser-NH2] | 0.53 ± 0.026 | 91 | 91 | 100 | 9.15 ± 0.46 | 7.04 ± 0.35 | – | – | – | – | –
H-RTTKS-NH2 [Peptide 29, H-Arg-Thr-Thr-Lys-Ser-NH2] | 0.3 ± 0.015 | 101 | 111 | 110 | 7.95 ± 0.4 | 2.43 ± 0.12 | – | – | – | – | 0.309
H-RTTKS-OH [Peptide 25, H-Arg-Thr-Thr-Lys-Ser-OH] | 0.54 ± 0.027 | 97 | 87 | 109 | < 0.2 | 2.51 ± 0.13 | – | – | – | – | –
H-RTTRS-NH2 [Peptide 21, H-Arg-Thr-Thr-Arg-Ser-NH2] | 0.44 ± 0.022 | 84 | 94 | 103 | 12 ± 0.59 | 2.93 ± 0.14 | – | – | – | – | –
